Consider one molecule from US12138267B2, “Methods of treating respiratory depression modulated by a non-opioid agent” (Enalare Therapeutics Inc., priority 2021, dated 2024).

Series [1] has as its system healthy participants. As to conditions: propofol during placebo infusion.
Series [2] is described as follows: clinical. As to conditions: for AUC(0-t): both, human, plasma, intravenous, propofol Mean AUClast. The method, then:
A study is conducted for Compound A. The study is a 3-period, randomized, placebo-controlled, double-blind, crossover study in healthy subjects. The primary objective of the study was to determine the safety and tolerability of Compound A in healthy participants after low and high doses of Compound A under hypoxic and hypercapnic conditions in conjunction with low and high doses of propofol. Another primary objective of the study was to determine the ventilatory response of low and high doses of Compound A under hypoxic and hypercapnic conditions in conjunction with low and high doses of propofol. A secondary objective of the study was to determine the cardiovascular response of low and high doses of Compound A during hypoxic and hypercapnic conditions in conjunction with low and high doses of propofol. Another secondary objective of the study was to evaluate the ventilatory response after administration of Compound A and propofol, under different ventilatory conditions: hypoxia and hyperoxic exposure at normocapnia followed by the same sequence at hypercapnia. The study was conducted in conformance with Good Clinical Practice. The study was a randomized, double-blinded, placebo-controlled, three-way crossover study to assess the safety, tolerability, respiratory PD, and PK of Compound A in healthy male and female participants. Subjects were initially screened up to 6 weeks prior to randomization. Following successful initial medical screening, they were scheduled for the study and receive a randomization number. Subjects underwent 3 separate treatment periods. In each of these periods, low or high doses of Compound A or placebo were continuously perfused throughout for a period of 270 minutes. During each period, subjects received different intravenous propofol dosages or placebo in set order: placebo—propofol low dose—propofol high dose. Each treatment session of propofol or placebo is […]. During each propofol treatment session, different ventilatory conditions are applied, hypoxia and hypercapnia (FIG. 1). […] Each assessment period (i.e., “run”) consists of a hypoxia/hyperoxic exposure at normocapnia followed by one the same sequence at hypercapnia. […] The participants received the following treatments in random order during the dosing periods: • Placebo+placebo/propofol low/propofol high/ • Compound A low+placebo/propofol low/propofol high • Compound A high+placebo/propofol low/propofol high Subjects were admitted to study site on Day −1 for pre-dose activities and eligibility was reassessed and stayed overnight. On each dosing day (Day 1), subjects were transferred to a special unit at study site in the morning (or early afternoon) after a minimum 8 hour overnight fasting. After placement of the respiratory and cardiovascular monitoring/assessment devices including an arterial line, subjects assumed the semi-recumbent position and sufficient time was allowed for subjects to resume a normal breathing pattern. After completion of baseline evaluations, all measurements were performed as per the schedule of assessments. Upon completion of all measurements on the dosing day, subjects were monitored overnight and assessed the next morning (at least 12 hours post study treatments) prior to discharge (Day 2). Subjects were not immediately discharged in cases where prolonged care is required (e.g., due to adverse event, residual sedation etc.) and were treated as necessary. Duration of Treatment: Participation was approximately 10 weeks divided as follows: • Screening: Up to 42 days before first dosing • Treatment phase of approximately 21 days, including three treatment and study assessment periods of 3 days each with approximately 7 days (minimum of 3) between dosing days • Follow up 7 days after last dosing Healthy adult subjects were selected for the study.

Where [3] appears, read: during infusion with Compound A high dose.
Setting [4] is: during infusion with Compound A low dose.

Regarding `CC(C)c1cccc(C(C)C)c1O` [propofol], in series [1], the “Effect of propofol on hypoxic sensitivity” value is on record as “decreased hypoxic sensitivity”. Moreover, the AUC(0-t) – broadly, the area under the concentration-time curve up to a stated or last time point – in series [2] (setting [3]) came out at 6150 ± 1170 ng·h/mL; in series [2] (setting [4]), 5750 ± 1180 ng·h/mL; in series [2] (during infusion with placebo), 4600 ± 548 ng·h/mL. Moreover, the “propofol peak plasma concentration, mean (±SD)” value was found to be 2620.0 ± 1093.86 ng/mL in series [2] (setting [3]), 2534.2 ± 1192.34 ng/mL in series [2] (setting [4]) and 1880.8 ± 265.45 ng/mL in series [2] (during infusion with placebo). Moreover, the “Propofol plasma concentrations during infusion with Compound A compared to placebo infusion” value in series [2] (in vivo) is given as “tended to be higher during infusion with Compound A”. Also, the “Propofol plasma concentrations versus targeted concentration” value in series [2] (propofol high dose infusion, target 1200 ng/mL) was “exceeding those targeted”. In addition, the “propofol Geometric mean Cav200-270 min” value in series [2] (propofol high dose interval, range across treatments) was in the range of 1525.12 to 1862.45 ng/mL. In series [2] (propofol low dose interval, range across treatments), the “propofol Geometric mean Cav115-185 min” value lay within 452.62 to 559.80 ng/mL.
